In the NIST ThermoML archive (doi:10.1021/acs.jced.7b00035):
“And” between values parts separate entries of the source, which are not always exact repeats. Identical values can stand only once.

Legend:
[1] = xn = mol fraction of the nth substance listed; settings: 100 kPa, Liquid, Vibrating tube method
[2] = excess molar enthalpy (molar enthalpy of mixing); xn = mol fraction of the nth substance listed; settings: 100 kPa, Liquid, Flow calorimetry

CCCC(C)=O [pentan-2-one] + O
Settings	excess molar enthalpy, [2]	mass density, [1]
288.15 K, x1 = 0.000842	-0.00254 kcal/mol and -0.00255 kcal/mol	998.562 kg/m3 and 998.56 kg/m3
288.15 K, x1 = 0.001683	-0.00506 kcal/mol	998.027 kg/m3 and 998.026 kg/m3
288.15 K, x1 = 0.002522	-0.00753 kcal/mol and -0.00751 kcal/mol	997.512 kg/m3 and 997.513 kg/m3
288.15 K, x1 = 0.00336	-0.00987 kcal/mol	997.021 kg/m3
288.15 K, x1 = 0.003361	-0.00991 kcal/mol	997.002 kg/m3
288.15 K, x1 = 0.004197	-0.0122 kcal/mol	996.522 kg/m3
288.15 K, x1 = 0.004198	-0.0123 kcal/mol	996.499 kg/m3
288.15 K, x1 = 0.005032	-0.0146 kcal/mol	996.016 kg/m3
288.15 K, x1 = 0.005035	-0.0146 kcal/mol	996.015 kg/m3
298.15 K, x1 = 0.000841	-0.00207 kcal/mol	996.472 kg/m3
298.15 K, x1 = 0.000842	-0.00207 kcal/mol	996.472 kg/m3
298.15 K, x1 = 0.001681	-0.00411 kcal/mol	995.903 kg/m3
298.15 K, x1 = 0.001682	-0.00412 kcal/mol	995.902 kg/m3
298.15 K, x1 = 0.00252	-0.00613 kcal/mol	995.346 kg/m3
298.15 K, x1 = 0.002521	-0.00617 kcal/mol	995.334 kg/m3
298.15 K, x1 = 0.003357	-0.00809 kcal/mol	994.797 kg/m3
298.15 K, x1 = 0.003358	-0.008 kcal/mol	994.811 kg/m3
298.15 K, x1 = 0.004193	-0.00999 kcal/mol and -0.00995 kcal/mol	994.25 kg/m3 and 994.26 kg/m3
298.15 K, x1 = 0.005028	-0.0119 kcal/mol	993.716 kg/m3
298.15 K, x1 = 0.005029	-0.0119 kcal/mol	993.707 kg/m3
308.15 K, x1 = 0.000841	-0.00163 kcal/mol	–
308.15 K, x1 = 0.000842	-0.00164 kcal/mol	993.42 kg/m3
308.15 K, x1 = 0.001681	-0.00322 kcal/mol	992.814 kg/m3
308.15 K, x1 = 0.001683	-0.00322 kcal/mol	992.818 kg/m3
308.15 K, x1 = 0.00252	-0.00476 kcal/mol	992.226 kg/m3
308.15 K, x1 = 0.002522	-0.00473 kcal/mol	992.228 kg/m3
308.15 K, x1 = 0.003358	-0.00626 kcal/mol	991.617 kg/m3
308.15 K, x1 = 0.00336	-0.00623 kcal/mol	991.643 kg/m3
308.15 K, x1 = 0.004194	-0.00773 kcal/mol	991.052 kg/m3
308.15 K, x1 = 0.004197	-0.00775 kcal/mol	991.045 kg/m3
308.15 K, x1 = 0.005031	-0.00918 kcal/mol	990.475 kg/m3
308.15 K, x1 = 0.005034	-0.00916 kcal/mol	990.474 kg/m3
318.15 K, x1 = 0.00084	-0.00118 kcal/mol	989.57 kg/m3
318.15 K, x1 = 0.001679	-0.00232 kcal/mol	988.929 kg/m3
318.15 K, x1 = 0.002517	-0.00341 kcal/mol	988.307 kg/m3
318.15 K, x1 = 0.003354	-0.0045 kcal/mol	987.666 kg/m3
318.15 K, x1 = 0.004189	-0.00553 kcal/mol	987.058 kg/m3
318.15 K, x1 = 0.005024	-0.0065 kcal/mol	986.447 kg/m3
